Source: paper PMC8815882, “Screening the pandemic response box identified benzimidazole carbamates, Olorofim and ravuconazole as promising drug candidates for the treatment of eumycetoma” (PLoS Neglected Tropical Diseases, 2022)
Like-named read-outs stand apart in the source and are kept apart here.

Tested on: M. mycetomatis genome strain MM55
Assay: CLSI M38-A2 based in vitro susceptibility screening (XTT or resazurin), growth at fixed concentration
Format: cell-based, Madurella mycetomatis
Settings: Madurella mycetomatis; for Percent fungal survival at 100 µM: read-out: Percentage survival at 100um, 100 uM A (second replicate column)
[1] = mean of three, M. mycetomatis MM55, read-out: Percentage survival at 25um, 25 uM mean
[2] = replicate A, M. mycetomatis MM55, read-out: Percentage survival at 25um, 25 um A
[3] = replicate B, M. mycetomatis MM55, read-out: Percentage survival at 25um, 25 uM B
[4] = replicate C, M. mycetomatis MM55, read-out: Percentage survival at 25um, 25 uM C
[5] = mean of three, M. mycetomatis MM55, read-out: Percentage survival at 100um, 100 uM mean
[6] = replicate 1, M. mycetomatis MM55, read-out: Percentage survival at 100um, 100 uM A (first replicate column)
[7] = replicate 2, M. mycetomatis MM55
[8] = replicate 3, M. mycetomatis MM55, read-out: Percentage survival at 100um, 100 uM A (third replicate column)
[9] = mean of replicates, read-out: Percentage survival at 25um, 25 uM mean
[10] = replicate A, read-out: Percentage survival at 25um, 25 um A
[11] = replicate B, read-out: Percentage survival at 25um, 25 uM B
[12] = replicate C, read-out: Percentage survival at 25um, 25 uM C
[13] = mean of replicates, read-out: Percentage survival at 100um, 100 uM mean
[14] = replicate 1, read-out: Percentage survival at 100um, 100 uM A
[15] = replicate 2, read-out: Percentage survival at 100um, 100 uM A
[16] = replicate 3, read-out: Percentage survival at 100um, 100 uM A
[17] = mean, read-out: Percentage survival at 25um, 25 uM mean
[18] = mean, read-out: Percentage survival at 100um, 100 uM mean
[19] = replicate (first column), read-out: Percentage survival at 100um, 100 uM A
[20] = replicate (second column), read-out: Percentage survival at 100um, 100 uM A
[21] = replicate (third column), read-out: Percentage survival at 100um, 100 uM A

| Compound | activity at 25 µM [9] [%] | activity at 25 µM [10] [%] | activity at 25 µM [11] [%] | activity at 25 µM [12] [%] | activity at 100 µM [13] [%] | activity at 100 µM [14] [%] | activity at 100 µM [15] [%] | activity at 100 µM [16] [%] | also measured |
| --- | --- | --- | --- | --- | --- | --- | --- | --- | --- |
| CO[C@@]1(NC(=O)Cc2cccs2)C(=O)N2C(C(=O)O)=C(COC(N)=O)CS[C@@H]21 [MMV1578559] |  |  |  |  |  |  |  |  | activity at 25 µM [1]: 84.2%; activity at 25 µM [2]: 91.6%; activity at 25 µM [3]: 86.2%; activity at 25 µM [4]: 74.6%; activity at 100 µM [5]: 90.3%; activity at 100 µM [6]: 87.3%; Percent fungal survival at 100 µM [7]: 98.4%; activity at 100 µM [8]: 85.1% |
| CCCCCCCc1[nH]c2ccccc2c(=O)c1O [MMV1578561] |  |  |  |  |  |  |  |  | activity at 25 µM [1]: 76.2%; activity at 25 µM [2]: 76.9%; activity at 25 µM [3]: 79.7%; activity at 25 µM [4]: 71.9%; activity at 100 µM [5]: 72.1%; activity at 100 µM [6]: 73.7%; Percent fungal survival at 100 µM [7]: 69.3%; activity at 100 µM [8]: 73.2% |
| O=S(=O)(Nc1ccccc1)c1ccc(NC(=S)Nc2ccccc2)cc1 [MMV1578562] | 90 | 93.2 | 90.8 | 86.1 | 86 | 96.1 | 79.6 | 82.2 |  |
| Fc1ccc2c(/C=C/c3nnn[nH]3)c[nH]c2c1 [MMV1578563] | 87.2 | 86.3 | 93.6 | 81.6 | 98.8 | 96 | 91.8 | 109 |  |
| CCc1cc(O)c(Oc2ccc(C(N)=O)cc2F)cc1F [MMV1578564] |  | 145 | 87.1 | 85.3 |  |  |  |  | activity at 25 µM (mean of three replicates, read-out: Percentage survival at 25um, 25 uM mean): 106%; activity at 100 µM (mean of three replicates, read-out: Percentage survival at 100um, 100 uM mean): 80.4%; activity at 100 µM (replicate 1, read-out: Percentage survival at 100um, 100 uM A (first replicate column)): 82.2%; Percent fungal survival at 100 µM (replicate 2): 78.3%; activity at 100 µM (replicate 3, read-out: Percentage survival at 100um, 100 uM A (third replicate column)): 80.6% |
| CSC[C@H]1CN(Cc2c[nH]c3c(N)ncnc23)C[C@@H]1O [MMV1578565] |  |  |  |  |  |  |  |  | activity at 25 µM [1]: 80.1%; activity at 25 µM [2]: 86.7%; activity at 25 µM [3]: 77.5%; activity at 25 µM [4]: 76%; activity at 100 µM [5]: 87.9%; activity at 100 µM [6]: 88.9%; Percent fungal survival at 100 µM [7]: 83%; activity at 100 µM [8]: 91.9% |
| NC[C@H]1OB(O)c2c(OCCCO)cccc21 [MMV1578566] | 83 | 83.4 | 92.5 | 72.9 | 97.6 | 93.8 | 96.2 | 103 |  |
| O=c1ccc2ncc(=O)n3c2n1CC3CN1CCC(NCc2cc3c(cn2)OCCC3)CC1 (stereo not drawn) [MMV1578568] |  | 82.6 | 42.3 | 75.2 |  |  |  |  | activity at 25 µM [17]: 66.7%; activity at 100 µM [18]: 63.3%; activity at 100 µM [19]: 26.3%; activity at 100 µM [20]: 74.3%; activity at 100 µM [21]: 89.2% |
| O=C1NC(=S)N/C1=C\c1cc(Br)cc(Br)c1O [MMV1578569] | 85.5 | 79.8 | 98.7 | 77.8 | 102 | 103 | 104 | 97.5 |  |
| CC(C)(C)c1cc(C(=O)/C(C#N)=N/Nc2cccc(Cl)c2)no1 [MMV1578571] | 61 | 95.6 | 56.3 | 31.2 | 6.1 | 4.87 | 4.92 | 8.51 |  |
| COc1cc(NC(=O)CN2C(=O)NC(c3ccccc3)(c3ccccc3)C2=O)cc(OC)c1 [MMV1578572] |  | 95.2 | 47.1 | 73.6 |  |  |  |  | activity at 25 µM [17]: 72%; activity at 100 µM [18]: 79.3%; activity at 100 µM [19]: 83.4%; activity at 100 µM [20]: 65.2%; activity at 100 µM [21]: 89.3% |
| COc1ccc(SCC(=O)N2c3ccccc3Sc3ccccc32)cc1 [MMV1578573] | 55.5 | 59.3 | 58.5 | 48.8 | 68.5 | 43.6 | 62.3 | 99.7 |  |
